Experimental data taken from ChEMBL document CHEMBL1152440, “Discovering potent small molecule inhibitors of cyclophilin A using de novo drug design approach” (J Med Chem, 2009).

Target: Peptidyl-prolyl cis-trans isomerase A (Homo sapiens, UniProt P62937)
Sequence (P62937 whole entry): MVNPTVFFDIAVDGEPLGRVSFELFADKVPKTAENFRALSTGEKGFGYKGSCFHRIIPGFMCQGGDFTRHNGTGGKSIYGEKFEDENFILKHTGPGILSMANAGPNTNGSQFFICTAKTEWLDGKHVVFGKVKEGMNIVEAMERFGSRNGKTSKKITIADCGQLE
Description: Inhibition of peptidyl-prolyl isomerase activity of Cyclophilin A

IC50, Not Active:
COc1cccc(F)c1C(=O)NC(=O)NC1c2ccccc2-c2ccccc21
Cc1ccccc1C(=O)NC(=O)NC1c2ccccc2-c2ccccc21
O=C(NCCc1ccccc1)NC(=O)c1c(O)cccc1O
O=C(NC(=O)c1ccccc1)NC1c2ccccc2-c2ccccc21
O=C(NC(=O)c1c(F)cccc1OCc1ccccc1)NC1c2ccccc2-c2ccccc21
